Measured values published in US12509444B2, “Compounds and methods for CD73 modulation and indications therefor” (Plexxikon Inc., priority 2019, dated 2025).

Target: T1, Human CD73 (amino acid residues 27-549) (Homo sapiens, UniProt P21589)
T1 construct: Human CD73 (amino acid residues 27-549); His tag (N); made in house; host or cells: E. coli
T1 sequence (P21589 27-549): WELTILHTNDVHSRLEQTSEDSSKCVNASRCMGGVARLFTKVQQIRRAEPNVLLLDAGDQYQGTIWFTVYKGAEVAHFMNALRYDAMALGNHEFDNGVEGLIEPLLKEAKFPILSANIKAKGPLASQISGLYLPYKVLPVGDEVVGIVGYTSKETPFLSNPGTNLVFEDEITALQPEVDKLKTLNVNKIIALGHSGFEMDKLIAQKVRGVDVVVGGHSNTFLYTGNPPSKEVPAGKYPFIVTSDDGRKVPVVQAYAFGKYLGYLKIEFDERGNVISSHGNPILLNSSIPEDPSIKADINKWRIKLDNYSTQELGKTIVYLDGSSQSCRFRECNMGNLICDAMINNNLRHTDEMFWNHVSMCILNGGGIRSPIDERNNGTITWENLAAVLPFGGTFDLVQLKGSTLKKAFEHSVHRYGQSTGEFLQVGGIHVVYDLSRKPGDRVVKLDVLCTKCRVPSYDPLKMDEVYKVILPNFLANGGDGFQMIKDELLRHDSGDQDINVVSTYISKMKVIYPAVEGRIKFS
Assay: CD73 enzymatic assay (luciferase-based indirect assay, CellTiter-Glo)
Format: biochemical
Conditions: 0.4 nM CD73, 150 μM AMP, 1 hour at room temperature
Protocol: CD73 enzymatic activity was measured in a luciferase-based indirect assay using CellTiter-Glo® system from Promega. The luciferase reaction in the presence of ATP is inhibited by AMP, a primary substrate of CD73. Addition of CD73 enzyme to the reaction converts AMP to adenosine, and release the inhibition, producing a luminescent signal. Inhibition of CD73 leads to the decrease of this luminescent signal.
Human CD73 (amino acid residues 27-549) with N-Terminal His tag was purified in E. coli. All the assay components were prepared in 50 mM HEPEs buffer (pH 7.4) with 0.01% Tween® 20. The CD73 enzymatic assay was performed using 0.4 nM CD73 and 150 μM AMP. 9.5 μL of CD73 protein and 9.5 μL of AMP were added to the wells of a 384 well plate containing 1 μL of various concentrations of test compound or DMSO vehicle and incubated for 1 hour at room temperature. 16 wells containing CD73, AMP and 5% DMSO served as high control. 16 wells containing AMP and 5% DMSO served as low control. Enzymatic reaction was stopped and AMP level was measured indirectly by adding 5 μL of CellTiter-Glo® 2.0 reagent and 5 μL of ATP with a final concentration of 1 μM. Following incubation of the plate at room temperature for 30 minutes, luminescent signal was read on a Tecan plate reader. The percentage inhibition at individual concentrations relative to high and low controls was calculated. The data were analyzed by using nonlinear regression to generate IC50 values.

SMILES	IC50
O=C(Nc1ccc(C(F)(F)F)cc1)N[C@@H]1CCN(c2cn[nH]c(=O)c2Cl)C1 [P-0043, (R)-1-(1-(5-chloro-6-oxo-1,6-dihydropyridazin-4-yl)pyrrolidin-3-yl)-3-(4-(trifluoromethyl)phenyl)urea]	0.001 to 10 µM
O=C(Nc1cccc(OC(F)F)c1)N[C@@H]1CCN(c2cn[nH]c(=O)c2Cl)C1 [P-0044, (R)-1-(1-(5-chloro-6-oxo-1,6-dihydropyridazin-4-yl)pyrrolidin-3-yl)-3-(3-(difluoromethoxy)phenyl)urea]	0.001 to 10 µM
CN(C)c1ccc(NC(=O)N[C@@H]2CCN(c3cn[nH]c(=O)c3Cl)C2)cc1 [P-0045, (R)-1-(1-(5-chloro-6-oxo-1,6-dihydropyridazin-4-yl)pyrrolidin-3-yl)-3-(4-(dimethylamino)phenyl)urea]	10 to 100 µM
O=C(N[C@@H]1CCN(c2cn[nH]c(=O)c2Cl)C1)OCc1ccccc1 [P-0048, benzyl (R)-(1-(5-chloro-6-oxo-1,6-dihydropyridazin-4-yl)pyrrolidin-3-yl)carbamate]	10 to 100 µM
COc1ccc(OC(=O)N[C@@H]2CCN(c3cn[nH]c(=O)c3Cl)C2)cc1 [P-0049, 4-methoxyphenyl (R)-(1-(5-chloro-6-oxo-1,6-dihydropyridazin-4-yl)pyrrolidin-3-yl)carbamate]	0.001 to 10 µM
CC(C)COC(=O)N[C@@H]1CCN(c2cn[nH]c(=O)c2Cl)C1 [P-0050, isobutyl (R)-(1-(5-chloro-6-oxo-1,6-dihydropyridazin-4-yl)pyrrolidin-3-yl)carbamate]	0.001 to 10 µM
O=C(NC1CC1)N[C@@H]1CCN(c2cn[nH]c(=O)c2Cl)C1 [P-0053, (R)-1-(1-(5-chloro-6-oxo-1,6-dihydropyridazin-4-yl)pyrrolidin-3-yl)-3-cyclopropylurea]	0.001 to 10 µM
O=C(N[C@@H]1CCN(c2cn[nH]c(=O)c2Cl)C1)OC1CCOC1 (stereo partly drawn) [P-0055, tetrahydrofuran-3-yl ((R)-1-(5-chloro-6-oxo-1,6-dihydropyridazin-4-yl)pyrrolidin-3-yl)carbamate]	0.001 to 10 µM
C[C@H]1CN(c2cn[nH]c(=O)c2Cl)C[C@@H]1NC(=O)OC(C)(C)C [P-0060, tert-butyl ((3R,4S)-1-(5-chloro-6-oxo-1,6-dihydropyridazin-4-yl)-4-methylpyrrolidin-3-yl)carbamate]	0.001 to 10 µM
C[C@H]1CN(c2cn[nH]c(=O)c2Cl)C[C@@H]1NC(=O)NC1CCCC1 [P-0061, 1-((3R,4S)-1-(5-chloro-6-oxo-1,6-dihydropyridazin-4-yl)-4-methylpyrrolidin-3-yl)-3-cyclopentylurea]	0.001 to 10 µM
CN(C(=O)OC(C)(C)C)C1CCN(c2cn[nH]c(=O)c2Cl)C1 (stereo not drawn) [P-0066, tert-butyl (1-(5-chloro-6-oxo-1,6-dihydropyridazin-4-yl)pyrrolidin-3-yl)(methyl)carbamate]	10 to 100 µM
CN(C(=O)NC1CCCC1)C1CCN(c2cn[nH]c(=O)c2Cl)C1 (stereo not drawn) [P-0067, 1-(1-(5-chloro-6-oxo-1,6-dihydropyridazin-4-yl)pyrrolidin-3-yl)-3-cyclopentyl-1-methylurea]	10 to 100 µM
CN(C(=O)NC1CCCCC1)C1CCN(c2cn[nH]c(=O)c2Cl)C1 (stereo not drawn) [P-0069, 1-(1-(5-chloro-6-oxo-1,6-dihydropyridazin-4-yl)pyrrolidin-3-yl)-3-cyclohexyl-1-methylurea]	0.001 to 10 µM
CC(C)(C)OC(=O)NC1(C(=O)O)CCN(c2cn[nH]c(=O)c2Cl)C1 (stereo not drawn) [P-0070, 3-((tert-butoxycarbonyl)amino)-1-(5-chloro-6-oxo-1,6-dihydropyridazin-4-yl)pyrrolidine-3-carboxylic acid]	100 to 1000 µM
CC(=O)N1CCC(NC(=O)N[C@@H]2CCN(c3cn[nH]c(=O)c3Cl)C2)CC1 [P-0071, (R)-1-(1-acetylpiperidin-4-yl)-3-(1-(5-chloro-6-oxo-1,6-dihydropyridazin-4-yl)pyrrolidin-3-yl)urea]	0.001 to 10 µM
CCS(=O)(=O)N1CCC(NC(=O)N[C@@H]2CCN(c3cn[nH]c(=O)c3Cl)C2)CC1 [P-0072, (R)-1-(1-(5-chloro-6-oxo-1,6-dihydropyridazin-4-yl)pyrrolidin-3-yl)-3-(1-(ethylsulfonyl)piperidin-4-yl)urea]	0.001 to 10 µM
N#CC1(NC(=O)NC2CCCC2)CCN(c2cn[nH]c(=O)c2Cl)C1 (stereo not drawn) [P-0073, 1-(1-(5-chloro-6-oxo-1,6-dihydropyridazin-4-yl)-3-cyanopyrrolidin-3-yl)-3-cyclopentylurea]	10 to 100 µM
NC(=O)C1(NC(=O)OC2CCCCC2)CCN(c2cn[nH]c(=O)c2Cl)C1 (stereo not drawn) [P-0075, cyclohexyl (3-carbamoyl-1-(5-chloro-6-oxo-1,6-dihydropyridazin-4-yl)pyrrolidin-3-yl)carbamate]	10 to 100 µM
CN(C(=O)NC1CCN(c2cn[nH]c(=O)c2Cl)C1)C1CCCCC1 (stereo not drawn) [P-0078, 3-(1-(5-chloro-6-oxo-1,6-dihydropyridazin-4-yl)pyrrolidin-3-yl)-1-cyclohexyl-1-methylurea]	10 to 100 µM
CN(C(=O)NC1CCN(c2cn[nH]c(=O)c2Cl)C1)C1CCCC1 (stereo not drawn) [P-0079, 3-(1-(5-chloro-6-oxo-1,6-dihydropyridazin-4-yl)pyrrolidin-3-yl)-1-cyclopentyl-1-methylurea]	0.001 to 10 µM
Cc1n[nH]c(=O)c(Cl)c1N1CC[C@@H](NC(=O)NC2CCCCC2)C1 [P-0080, (R)-1-(1-(5-chloro-3-methyl-6-oxo-1,6-dihydropyridazin-4-yl)pyrrolidin-3-yl)-3-cyclohexylurea]	10 to 100 µM
Cc1c(N2CC[C@@H](NC(=O)OC3CCCCC3)C2)cn[nH]c1=O [P-0081, cyclohexyl (R)-(1-(5-methyl-6-oxo-1,6-dihydropyridazin-4-yl)pyrrolidin-3-yl)carbamate]	0.001 to 10 µM
Cc1n[nH]c(=O)c(Cl)c1N1CC[C@@H](NC(=O)OC2CCCC2)C1 [P-0082, cyclopentyl (R)-(1-(5-chloro-3-methyl-6-oxo-1,6-dihydropyridazin-4-yl)pyrrolidin-3-yl)carbamate]	10 to 100 µM
O=C(NCC1CC1)N[C@@H]1CCN(c2cn[nH]c(=O)c2Cl)C1 [P-0083, (R)-1-(1-(5-chloro-6-oxo-1,6-dihydropyridazin-4-yl)pyrrolidin-3-yl)-3-(cyclopropylmethyl)urea]	10 to 100 µM
O=C(NC1CC1c1ccccc1)N[C@@H]1CCN(c2cn[nH]c(=O)c2Cl)C1 (stereo partly drawn) [P-0084, 1-((R)-1-(5-chloro-6-oxo-1,6-dihydropyridazin-4-yl)pyrrolidin-3-yl)-3-(2-phenylcyclopropyl)urea]	0.001 to 10 µM
O=C(NC1C2CC3CC(C2)CC1C3)N[C@@H]1CCN(c2cn[nH]c(=O)c2Cl)C1 (stereo partly drawn) [P-0087, (R)-1-(adamantan-2-yl)-3-(1-(5-chloro-6-oxo-1,6-dihydropyridazin-4-yl)pyrrolidin-3-yl)urea]	0.001 to 10 µM
COC(=O)C12CCC(NC(=O)O[C@@H]3CCN(c4cn[nH]c(=O)c4Cl)C3)(CC1)CC2 [P-0120, methyl (R)-4-((((1-(5-chloro-6-oxo-1,6-dihydropyridazin-4-yl)pyrrolidin-3-yl)oxy)carbonyl)amino)bicyclo [2.2.2]octane-1-carboxylate]	0.001 to 10 µM
